Tested on: DR0301-restricted E2_281-300-specific T-cell line
Experiment: Tetramer staining of sorted T-cell line with peptide-loaded DR0301 tetramers
Type: cell-based, human
Details: quadrant boundary set by unloaded tetramer (Figure 2B)

## E2_285-300: truncated version of E2_281-300; minimal epitope
  Staining of T-cell line with tetramers loaded with peptide: could be stained

— paper PMC3124771 (Journal of immunology (Baltimore, Md. : 1950), 2011)
